According to US6855712B2, “Combination of benzoquinazoline antifolates and protecting agents” (SmithKline Beecham Corporation, priority 1992, dated 2005):

Key:
[1] = tested on: beagle dogs; assay: Dog toxicity of Compound A given as iv bolus for five consecutive days, with or without oral folic acid or leucovorin; format: in vivo
[2] = tested on: human tumor GC3TK; assay: Mouse antitumor: human tumor GC3TK in the subrenal capsule of nude mice, Compound A ip bolus for five days; format: in vivo

Compound: Cc1nc2ccc3ccc(CNc4ccc5c(c4)CN([C@@H](CCC(=O)O)C(=O)O)C5=O)cc3c2c(=O)[nH]1 [Compound A, (S)-2-(5-(((1,2-Dihydro-3-methyl-1-oxobenzo[f]quinazolin-9-yl)methyl)amino)-1-oxo-2-isoindolinyl)glutaric acid]
- lethality ([1]; 8 mg/kg iv bolus for five consecutive days, alone): lethal
- deaths ([1]; 10 mg/kg iv 30 minutes after oral leucovorin (Wellcovorin) 10 mg/kg): no deaths occurred
- deaths ([1]; 10 mg/kg iv 30 minutes after oral leucovorin (Wellcovorin) 50 mg/kg): no deaths occurred
- deaths ([1]; 10 mg/kg iv 30 minutes after oral leucovorin (Wellcovorin) 100 mg/kg): no deaths occurred
- deaths ([1]; 10 mg/kg iv 30 minutes after oral leucovorin (Wellcovorin) 200 mg/kg): no deaths occurred
- lethality ([1]; 10 mg/kg iv, five consecutive days, given alone): lethal
- lethality ([1]; 20 mg/kg iv bolus 30 minutes after oral folic acid 50 mg/kg): not lethal
- Mouse antiumor (% I) ([2]; 3.2 mg/kg Compound A, folic acid 0 mg/kg, experiment with 50 mg/kg folic acid): 100 % I
- Mouse antitumor (% I) ([2]; 3.2 mg/kg Compound A, folic acid 0 mg/kg, experiment with 500 mg/kg folic acid): 89 % I
- Mouse antiumor (% I) ([2]; 3.2 mg/kg Compound A, folic acid 50 mg/kg): 100 % I
- Mouse antitumor (% I) ([2]; 3.2 mg/kg Compound A, folic acid 500 mg/kg): 78 % I
- Mouse antitumor (% I) ([2]; 3.2 mg/kg Compound A, leucovorin 0 mg/kg): 100 % I
- Mouse antitumor (% I) ([2]; 3.2 mg/kg Compound A, leucovorin 200 mg/kg): 100 % I
- inhibition of tumor growth ([2]; 3.2 mg/kg ip bolus for five days, no protectant): complete inhibition of tumor growth
- Mouse antitumor (% I) ([2]; 10 mg/kg Compound A, folic acid 0 mg/kg, experiment with 50 mg/kg folic acid): >100 % I
- Mouse antitumor (% I) ([2]; 10 mg/kg Compound A, folic acid 0 mg/kg, experiment with 500 mg/kg folic acid): >100 % I
- Mouse antitumor (% I) ([2]; 10 mg/kg Compound A, folic acid 50 mg/kg): >100 % I
- Mouse antitumor (% I) ([2]; 10 mg/kg Compound A, folic acid 500 mg/kg): >100 % I
- Mouse antitumor (% I) ([2]; 10 mg/kg Compound A, leucovorin 0 mg/kg): >100 % I
- Mouse antitumor (% I) ([2]; 10 mg/kg Compound A, leucovorin 200 mg/kg): >100 % I
- inhibition of tumor growth ([2]; 10 mg/kg ip bolus for five days, no protectant): complete inhibition of tumor growth
- inhibition of tumor growth ([2]; 50 mg/kg folic acid orally 30 minutes prior to the ip bolus dose of Compound A (3.2 or 10 mg/kg)): complete inhibition of tumor growth
- inhibition of tumor growth ([2]; 200 mg/kg leucovorin orally 30 minutes prior to the ip bolus dose of Compound A (3.2 or 10 mg/kg)): complete inhibition of tumor growth
- inhibition ([2]; another experiment, 3.2 mg/kg, absence of protectant): 89%
- growth inhibition ([2]; another experiment, 10 mg/kg, absence of protectant): complete growth inhibition
- tumor growth inhibition versus absence of folic acid ([2]; another experiment, 500 mg/kg folic acid orally 30 min prior to Compound A): not significantly different
